Reference: US9358228B2, “Therapeutic combinations of netupitant and palonosetron” (Helsinn Healthcare SA, priority 2011, dated 2016)

Legend:
Format in all cases: in vivo, rat
[1] = tested on: acetic acid (AA)-induced somatic hypersensitivity in a rodent model; experiment: Somatic sensitivity assessment: von Frey hind paw withdrawal after intracolonic acetic acid; conditions: rats; for inhibition of AA-induced somatic hypersensitivity, agent alone: oral, effective dose not given (0.001-1 mg/kg dosed); for effect of 0.001 mg/kg dose alone on somatic hypersensitivity: 0.001 mg/kg oral, agent alone
Method: Induction of Acute Visceral and Somatic Hypersensitivity: Visceral and somatic hypersensitivity were induced by infusing dilute (1.5 ml at 0.6%) acetic acid (AA) into the rat colon via a catheter (Intramedic PE 90 tubing) inserted via the anus to the level of the mid-colon. Within 60 mins colonic and somatic hypersensitivity was evident. Somatic Sensitivity Assessment: Von Frey filaments were used to determine the level of somatic sensitivity in all animals receiving intracolonic infusion of AA. The Von Frey instrument measures the level of somatic sensitivity by recording the minimal force required to elicit hind paw withdrawal. The animals were placed in a mesh-bottomed Von Frey caging apparatus and a nylon filament was steadily pushed against the rat's foot pad until withdrawal of the hind paw. The force in grams which elicited hind paw withdrawal was then recorded. Test Compounds: Following surgery, rats were pre-dosed with Palonosetron (1-hr pre-dose), Netupitant (2-hr pre-dose) or methyl cellulose vehicle. Palonosetron and Netupitant were supplied by […] Healthcare Inc. and were stored at 4° C. until prepared for dosing as a suspension in 1% methyl cellulose solution. The drug suspensions were prepared so that each rat received an oral dosing volume of 0.5 ml per 100 g body weight for doses of 0.001, 0.01, 0.1 or 1 mg/kg. Compounds were prepared fresh on the day of use. Statistical Analysis: To determine statistical significance between multiple control and treatment groups, data was compared using one-way ANOVA followed by a Bonferroni post-test. Results were deemed significant when p-values were less than 0.05.

[2] = tested on: spinal dorsal horn neurones in SNL rats; experiment: Electrophysiology: mechanical, heat and brush evoked dorsal horn neural responses; conditions: mean ± S.E.
Method: Electrophysiology experiments were conducted on post-operative days 14-17 in anaesthetised rats.
We recorded the evoked responses of dorsal horn lamina V-VI neurones to stimulation of the peripheral receptive field with: • a train of 16 electrical pulses at 3×C-fibre threshold • mechanical von Frey filaments of increasing force—vf 2 g, 8 g, 26 g and 60 g applied to the centre of the receptive field for 10 seconds • heat—40, 45 and 48° C. applied to the centre of the receptive field by a constant water jet for 10 seconds
Following 3 stable baseline responses, 0.03 mg/kg Palonosetron and 0.10 mg/kg Netupitant were administered into the scruff of the neck by subcutaneous injection. Drug effects were followed for two hours with tests carried out at 10, 30, 50, 70, 90 and 110 minutes post injection.

[3] = tested on: acetic acid (AA)-induced colonic hypersensitivity in a rodent model; experiment: Colonic sensitivity assessment: visceromotor response to colorectal distension after acetic acid infusion; conditions: rats; for inhibition of AA-induced colonic hypersensitivity, agent alone: oral, effective dose not given (0.001-1 mg/kg dosed); for effect of 0.001 mg/kg dose alone on colonic and somatic sensitivity: 0.001 mg/kg p.o., agent alone
Method: Induction of Acute Visceral and Somatic Hypersensitivity: Visceral and somatic hypersensitivity were induced by infusing dilute (1.5 ml at 0.6%) acetic acid (AA) into the rat colon via a catheter (Intramedic PE 90 tubing) inserted via the anus to the level of the mid-colon. Within 60 mins colonic and somatic hypersensitivity was evident.
Colonic Sensitivity Assessment: Visceromotor responses (VMR) to colorectal distension (CRD) were measured by counting the number of abdominal contractions in response to increasing levels of CRD (0-60 mmHg). On the day of the colonic sensitivity assessment, a minor surgical procedure was performed to attach a strain gauge force transducer onto the abdominal oblique muscle and attached via an adapter cable to a Grass Model 7 Polygraph. The cable was connected to a Model 7P1 Low-Level DC Pre-Amp. The Pre-Amp was set at 0.02 mV/cm sensitivity and was connected to a Model 7DA DC Driver Amp with sensitivity set at […]. A 5 cm latex balloon was inserted into the distal colon. The balloon cannula was connected to a Distender Series IIR barostat (G & J Electronics Inc.) for controlled, isobaric inflation of the balloon and CRD using constant pressure (isobaric) tonic distensions were conducted at 0, 20, 40 and 60 mmHg. Each pressure was maintained for a period 10 min. during which time the number of abdominal muscle contractions were counted. A 10 min. recovery period was allowed between the each distension.
Test Compounds: Following surgery, rats were pre-dosed with Palonosetron (1-hr pre-dose), Netupitant (2-hr pre-dose) or methyl cellulose vehicle. Palonosetron and Netupitant were supplied by Helsinn Healthcare Inc. and were stored at 4° C. until prepared for dosing as a suspension in 1% methyl cellulose solution. The drug suspensions were prepared so that each rat received an oral dosing volume of 0.5 ml per 100 g body weight for doses of 0.001, 0.01, 0.1 or 1 mg/kg. Compounds were prepared fresh on the day of use.
Statistical Analysis: To determine statistical significance between multiple control and treatment groups, data was compared using one-way ANOVA followed by a Bonferroni post-test. Results were deemed significant when p-values were less than 0.05.

SNL rats = experiment: Behavioural assessment of the neuropathic state: paw withdrawal to von Frey filaments and acetone; conditions: for Paw Withdrawal Frequency (PWD), 2 g vF Filament / Paw Withdrawal Frequency (PWD), 6 g vF Filament / Paw Withdrawal Frequency (PWD), Cooling Acetone: mean ± S.E.
Excerpt: A model of experimental neuropathic pain with symptoms of allodynia and hyperalgesia was established by tightly ligating the L5 and L6 spinal nerves as previously described (Kim and Chung, 1992). Within a sterile theatre, rats weighing approximately 130-150 g were anaesthetised (1:1 O2:N2O, 3% halothane for induction, 1% maintenance) and following a small left-side incision at approximately L4-S2, paraspinal muscle and fat was removed from spinous processes. Part of the L6 traverse process was clipped with rangeurs to expose the parallel-lying L4 and L5 spinal nerves. The L5 nerve was isolated and hooked with a finely-pulled glass rod and tightly tied with non-absorbable 6-0 silk thread distal to the dorsal root ganglion (and proximal to the formation of the sciatic nerve). The L6 nerve was then hooked from under the sacrum and tied in a similar way. Haemostasis was confirmed and the wound was sutured with 3-0 absorbable silk. The surrounding skin was pulled together and secured over the injury with wound clips. Rats recovered in an incubator, and once it had been confirmed that they had no observable motor impairment in their left hindpaw, were re-housed in cages as above. Sham surgery was performed in the same environment and under the same conditions except nerves were not hooked or ligated.
On post-operative days 2, 7, 9 and 14, behavioural signs of punctate mechanical and cooling hypersensitivity were assessed in the left ipsilateral hindpaw relative to the right contralateral hindpaw in awake and alert rats. Rats were individually placed in clear acrylic cubes on an elevated floor of wire mesh, and following a period of acclimation (30 minutes), mechanical sensitivities were determined by paw withdrawal to von Frey (vF) filaments with bending forces 2 g and 6 g (tested in consecutive, ascending force). Each filament was applied to the plantar surface of the paw for ˜2-3 s with enough force to cause buckling, and for each animal this was repeated 10 times at set positions on each paw. […] Cold hypersensitivity was assessed by applying a drop of acetone to each paw 5 times during each testing period, with each application separated by an interval of at least 5 minutes. Withdrawal frequency was quantified as =(number of foot withdrawals/10 or 5 trials as appropriate).

## Cc1ccccc1-c1cc(N2CCN(C)CC2)ncc1N(C)C(=O)C(C)(C)c1cc(C(F)(F)F)cc(C(F)(F)F)c1 [Netu, 2-[3,5-bis(trifluoromethyl)phenyl]-N,2-dimethyl-N-[4-(2-methylphenyl)-6-(4-methylpiperazin-1-yl)pyridin-3-yl]propanamide]
[1]
  inhibition of AA-induced somatic hypersensitivity, agent alone: significantly inhibited
  effect of 0.001 mg/kg dose alone on somatic hypersensitivity: non-effective
[2]; Netu 0.1 mg/kg s.c.
  Brush-Evoked, Number of Action Potentials: 310 ± 40
  Heat-Evoked 40° Celsius, Number of Action Potentials: 298 ± 72
  Heat-Evoked 45° Celsius, Number of Action Potentials: 381 ± 82
  Heat-Evoked 48° Celsius, Number of Action Potentials: 495 ± 186
  Mechanically-Evoked 8 g vF Filament, Number of Action Potentials: 190 ± 42
  Mechanically-Evoked 26 g vF Filament, Number of Action Potentials: 390 ± 56
  Mechanically-Evoked 60 g vF Filament, Number of Action Potentials: 486 ± 75
[3]
  inhibition of AA-induced colonic hypersensitivity, agent alone: significantly inhibited
  effect of 0.001 mg/kg dose alone on colonic and somatic sensitivity: non-effective
SNL rats; FIG. 7, SNL rats, 1 mg/kg
  effect on behavioral hypersensitivities (withdrawal responses to vF2 g, vF6 g, acetone): appears to inhibit behavioral hypersensitivities
SNL rats; SNL rats, Netu 0.1 mg/kg s.c.
  Paw Withdrawal Frequency (PWD), 2 g vF Filament: 4.1 ± 1.0
  Paw Withdrawal Frequency (PWD), 6 g vF Filament: 6.7 ± 1.8
  Paw Withdrawal Frequency (PWD), Cooling Acetone: 1.9 ± 0.3
SNL rats; SNL rats, Netu 1 mg/kg s.c.
  Paw Withdrawal Frequency (PWD), 2 g vF Filament: 3.8 ± 1.2
  Paw Withdrawal Frequency (PWD), 6 g vF Filament: 6.2 ± 1.5
  Paw Withdrawal Frequency (PWD), Cooling Acetone: 2.7 ± 0.5
SNL rats; SNL rats, Netu 10 mg/kg s.c.
  Paw Withdrawal Frequency (PWD), 2 g vF Filament: 3.9 ± 1.1
  Paw Withdrawal Frequency (PWD), 6 g vF Filament: 5.9 ± 1.0
  Paw Withdrawal Frequency (PWD), Cooling Acetone: 2.0 ± 0.4
SNL rats; agent alone
  effect in animal models of allodynia/neuropathic pain, agent alone: zero or minimal effect

## Cl.O=C1c2cccc3c2[C@H](CCC3)CN1[C@@H]1CN2CCC1CC2 [Palo, (3aS)-2-[(S)-1-Azabicyclo[2.2.2]oct-3-yl]-2,3,3a,4,5,6-hexahydro-1-oxo-1Hberiz[de]isoquinoline]
[1]
  inhibition of AA-induced somatic hypersensitivity, agent alone: significantly inhibited
  effect of 0.001 mg/kg dose alone on somatic hypersensitivity: non-effective
[2]; Palo 0.03 mg/kg s.c.
  Brush-Evoked, Number of Action Potentials: 144 ± 59
  Heat-Evoked 40° Celsius, Number of Action Potentials: 136 ± 58
  Heat-Evoked 45° Celsius, Number of Action Potentials: 380 ± 187
  Heat-Evoked 48° Celsius, Number of Action Potentials: 816 ± 101
  Mechanically-Evoked 8 g vF Filament, Number of Action Potentials: 211 ± 42
  Mechanically-Evoked 26 g vF Filament, Number of Action Potentials: 539 ± 17
  Mechanically-Evoked 60 g vF Filament, Number of Action Potentials: 799 ± 192
[3]
  inhibition of AA-induced colonic hypersensitivity, agent alone: significantly inhibited
  effect of 0.001 mg/kg dose alone on colonic and somatic sensitivity: non-effective
SNL rats; FIG. 2, seen in the SNL rats only
  effect on the number of paw withdrawals to vF 2 g, vF 6 g and acetone: dose related reduction
SNL rats; SNL rats, Palo 0.03 mg/kg s.c.
  Paw Withdrawal Frequency (PWD), 2 g vF Filament: 2.8 ± 0.8
  Paw Withdrawal Frequency (PWD), 6 g vF Filament: 5.2 ± 1.5
  Paw Withdrawal Frequency (PWD), Cooling Acetone: 1.2 ± 0.4
SNL rats; SNL rats, Palo 0.3 mg/kg s.c.
  Paw Withdrawal Frequency (PWD), 2 g vF Filament: 3.1 ± 0.7
  Paw Withdrawal Frequency (PWD), 6 g vF Filament: 4.1 ± 1.3
  Paw Withdrawal Frequency (PWD), Cooling Acetone: 1.2 ± 0.5
SNL rats; SNL rats, Palo 3 mg/kg s.c.
  Paw Withdrawal Frequency (PWD), 2 g vF Filament: 1.4 ± 0.6
  Paw Withdrawal Frequency (PWD), 6 g vF Filament: 1.1 ± 0.4
  Paw Withdrawal Frequency (PWD), Cooling Acetone: 1.9 ± 0.3
